Activity calls are given as the source filed them. The calls are words filed in the database; no cut-off is given here. Positions of bridges follow the written chain, without caps; N, C: chain ends. Residues, ends and D or L forms follow the SMILES beside them.
Experiments:
[1] = tested on: Cell membrane; experiment: Disruption of cell membrane integrity in Escherichia coli ATCC 25922 assessed as cell membrane damage at 5 times MIC measured after 30 mins by scanning electron microscopic analysis; format: subcellular
[2] = tested on: Acinetobacter baumannii; experiment: Antimicrobial activity against Acinetobacter baumannii ATCC19606 assessed as reduction in microbial growth incubated for 18 hrs by broth microdilution method; format: functional
[3] = tested on: Escherichia coli; experiment: Antimicrobial activity against Escherichia coli CMCC44102 assessed as reduction in microbial growth incubated for 18 hrs by broth microdilution method; format: functional
[4] = tested on: Staphylococcus aureus; experiment: Antimicrobial activity against Staphylococcus aureus CMCC 26003 at 5 times MIC measured at 180 mins; format: functional, organism-based
[5] = tested on: Escherichia coli; experiment: Antimicrobial activity against Escherichia coli ATCC 25922 assessed as reduction in microbial growth incubated for 18 hrs by broth microdilution method; format: functional
[6] = tested on: Escherichia coli; experiment: Antibacterial activity against Escherichia coli ATCC 25922 at 1 times MIC in presence of exogenous DNA; format: functional, organism-based
[7] = tested on: Staphylococcus aureus; experiment: Antibiofilm activity against Staphylococcus aureus CMCC 26003 assessed as inhibition of biofilm formation incubated for 48 hrs by crystal violet staining based analysis; format: functional, organism-based
[8] = tested on: Enterococcus faecalis; experiment: Antimicrobial activity against Enterococcus faecalis ATCC 29217 assessed as reduction in microbial growth incubated for 18 hrs by broth microdilution method; format: functional
[9] = tested on: Acinetobacter baumannii; experiment: In vivo antibacterial activity against Acinetobacter baumannii ATCC19606 infected in BALB/c mouse assessed as reduction in bacterial load in kidney at 15 mg/kg, ip measured after 12 hrs; format: functional, organism-based
[10] = Acute toxicity in BALB/c mouse assessed as mortality at 20 mg/kg, iv measured for 24 hrs; format: organism-based; conditions: in vivo, read-out: Activity
[11] = Acute toxicity in BALB/c mouse assessed as mortality at 50 mg/kg, iv measured for 24 hrs; format: organism-based; conditions: in vivo, read-out: Activity
[12] = tested on: Acinetobacter baumannii; experiment: In vivo antibacterial activity against Acinetobacter baumannii ATCC19606 infected in BALB/c mouse assessed as reduction in bacterial load in liver at 15 mg/kg, ip measured after 3 hrs; format: functional, organism-based
[13] = Hemolytic activity at human Erythrocyte assessed as hemolysis at 100 microg/ml; format: toxicity, cell-based; conditions: erythrocytes, at 100 µg/mL, read-out: Activity
[14] = Acute toxicity in BALB/c mouse assessed as effect on ALT level at 10 mg/kg, iv measured for 24 hrs; format: organism-based; conditions: in vivo
[15] = tested on: Escherichia coli; experiment: Antibacterial activity against Escherichia coli ATCC 25922 assessed as increase in intracellular ROS production at 1 times MIC by DCFH-DA staining based assay; format: functional, organism-based
[16] = tested on: Staphylococcus epidermidis; experiment: Antimicrobial activity against Staphylococcus epidermidis assessed as reduction in microbial growth incubated for 18 hrs by broth microdilution method; format: functional
[17] = tested on: Acinetobacter baumannii; experiment: Antibiofilm activity against Acinetobacter baumannii ATCC 19606 assessed as inhibition of biofilm formation at 0.5 times MIC incubated for 48 hrs by crystal violet staining based analysis; format: functional
[18] = tested on: Staphylococcus aureus; experiment: Antimicrobial activity against Staphylococcus aureus ATCC 43300 assessed as reduction in microbial growth incubated for 18 hrs by broth microdilution method; format: functional
[19] = tested on: Staphylococcus aureus; experiment: Antibiofilm activity against Staphylococcus aureus CMCC 26003 assessed as biofilm eradication at 0.5 to 2 times MIC incubated for 24 hrs by crystal violet staining based analysis; format: functional
[20] = tested on: Acinetobacter baumannii; experiment: In vivo antibacterial activity against Acinetobacter baumannii ATCC19606 infected in BALB/c mouse assessed as reduction in bacterial load in kidney at 15 mg/kg, ip measured after 3 hrs; format: functional, organism-based
[21] = tested on: Enterococcus faecium; experiment: Antimicrobial activity against Enterococcus faecium 34 assessed as reduction in microbial growth incubated for 18 hrs by broth microdilution method; format: functional
[22] = tested on: Acinetobacter baumannii; experiment: Antipersister-activity against Acinetobacter baumannii ATCC 19606 assessed as elimination of persister cells at 50 times MIC preincubated adherent persistent cells with colistin incubation for 24 hrs; format: functional
[23] = tested on: Acinetobacter baumannii; experiment: In vivo antibacterial activity against Acinetobacter baumannii ATCC19606 infected in BALB/c mouse assessed as reduction in bacterial load in lung at 15 mg/kg, ip measured after 12 hrs; format: functional, organism-based
[24] = tested on: Peritoneal macrophage; experiment: Antiinflammatory activity in mouse Peritoneal macrophage cells assessed as inhibition of LPS-induced TNF-alpha production at 20 microg/ml incubated for 6 hrs by ELISA analysis; format: functional, cell-based; conditions: dose 20.0 µg/ml
[25] = Acute toxicity in BALB/c mouse assessed as mortality at 15 mg/kg, iv measured for 24 hrs; format: organism-based; conditions: in vivo, read-out: Activity
[26] = tested on: Staphylococcus aureus; experiment: Antimicrobial activity against Staphylococcus aureus 08032706 assessed as reduction in microbial growth incubated for 18 hrs by broth microdilution method; format: functional
[27] = tested on: Pseudomonas aeruginosa; experiment: Antimicrobial activity against Pseudomonas aeruginosa CMCC10104 assessed as reduction in microbial growth incubated for 18 hrs by broth microdilution method; format: functional
[28] = tested on: Acinetobacter baumannii; experiment: In vivo antibacterial activity against Acinetobacter baumannii ATCC19606 infected in BALB/c mouse assessed as survival at 15 mg/kg, ip administered for 12 hrs and measured on day 7; format: functional; conditions: ATCC19606, 168 h, time 7 day
[29] = Acute toxicity in BALB/c mouse assessed as effect on BUN level at 10 mg/kg, iv measured for 24 hrs; format: organism-based; conditions: in vivo
[30] = tested on: Acinetobacter baumannii; experiment: Antibiofilm activity against Acinetobacter baumannii ATCC 19606 assessed as biofilm eradication incubated for 24 hrs by crystal violet staining based analysis; format: functional, organism-based
[31] = tested on: Staphylococcus aureus; experiment: Antimicrobial activity against Staphylococcus aureus CMCC 26003 assessed as reduction in microbial growth incubated for 18 hrs by broth microdilution method; format: functional
[32] = tested on: Acinetobacter baumannii; experiment: In vivo antibacterial activity against Acinetobacter baumannii ATCC19606 infected in BALB/c mouse assessed as reduction in bacterial load in lung at 15 mg/kg, ip measured after 3 hrs; format: functional, organism-based
[33] = tested on: Cell membrane; experiment: Disruption of cell membrane integrity in Staphylococcus aureus CMCC 26003 assessed as cell membrane damage at 5 times MIC measured after 30 mins by scanning electron microscopic analysis; format: subcellular
[34] = tested on: Staphylococcus aureus; experiment: Antipersister-activity against Staphylococcus aureus CMCC 26003 assessed as elimination of persister cells at 50 times MIC preincubated adherent persistent cells with colistin incubation for 24 hrs; format: functional
[35] = tested on: Acinetobacter baumannii; experiment: In vivo antibacterial activity against Acinetobacter baumannii ATCC19606 infected in BALB/c mouse assessed as reduction in bacterial load at 15 mg/kg, ip; format: functional, organism-based; conditions: time 3.0 hrs
[36] = tested on: Peritoneal macrophage; experiment: Antiinflammatory activity in mouse Peritoneal macrophage cells assessed as inhibition of LPS-induced IL-6 production at 20 microg/ml incubated for 6 hrs by ELISA analysis; format: functional, cell-based; conditions: dose 20.0 µg/ml
[37] = tested on: Clostridium perfringens; experiment: Antimicrobial activity against Clostridium perfringens ATCC 13124 assessed as reduction in microbial growth incubated for 18 hrs by broth microdilution method; format: functional
[38] = tested on: Staphylococcus aureus; experiment: Antimicrobial activity against Staphylococcus aureus CMCC 26003 assessed as fold increase in MIC incubated for 18 hrs in presence of CCCP; format: functional
[39] = tested on: Staphylococcus aureus; experiment: Bactericidal activity against Staphylococcus aureus CMCC 26003 assessed as bacterial eradication incubated at 0.5 hrs in presence of thiourea; format: functional, organism-based
[40] = tested on: Escherichia coli; experiment: Antibacterial activity against Escherichia coli ATCC 25922 assessed as increase in intracellular ROS production at 2 to 5 times MIC by DCFH-DA staining based assay; format: functional, organism-based

SMILES | MIC [2] [µg/mL] | MIC [3] [µg/mL] | MIC [5] [µg/mL] | Activity [6] | Activity [7] | MIC [8] [µg/mL] | Activity [9] | mortality at 24 h [10] [%] | mortality at 24 h [11] [%] | Activity [12] | hemolysis at 100 microg/ml [13] [%] | Activity [14] | Activity [15] | MIC [16] [µg/mL] | inhibition (INH) [17] [%] | MIC [18] [µg/mL] | Activity [19] [%] | Activity [20] | MIC [21] [µg/mL] | Activity [22] [%] | other results
CC[C@H](C)[C@H](NC(=O)[C@H](CCCNC(=N)N)NC(=O)[C@H](CO)NC(=O)[C@@H]1CSSC[C@H](N)C(=O)N[C@@H](Cc2ccccc2)C(=O)N[C@@H](CCCCN)C(=O)N[C@@H](CCCCN)C(=O)N[C@@H](C(C)C)C(=O)N[C@@H](CCCNC(=N)N)C(=O)N[C@@H](CCCCN)C(=O)N[C@@H](CCC(N)=O)C(=O)N[C@@H](CC(C)C)C(=O)NCC(=O)N[C@@H](CCCNC(=N)N)C(=O)N[C@@H](C(C)C)C(=O)N[C@@H](CC(C)C)C(=O)N[C@@H](CCCNC(=N)N)C(=O)N[C@@H](Cc2c[nH]cn2)C(=O)N1)C(=O)N[C@H](C(=O)N[C@H](C(=O)NCC(=O)NCC(=O)N[C@@H](CCCNC(=N)N)C(=O)N[C@@H](CCSC)C(=O)N[C@@H](CCCNC(=N)N)C(=O)N[C@@H](Cc1ccccc1)C(=O)O)C(C)C)[C@@H](C)O (H-CFKKVRKQLGRVLRHCSRITVGGRMRF-OH; disulfide 1-16) | 18.8 | 4.69 | 4.69 | Active | Active | 37.5 | Active | 100 | 50 | Active | < 5 | Non-toxic | Active | 9.38 | 10 | 18.8 | 20 | Active | 9.38 | 60 | Activity [1]: Active; Activity [4]: inactive; Activity [23]: Active; Activity [24]: Active; mortality at 24 h [25]: 0%; MIC [26]: 9.38 µg/mL; MIC [27]: 9.38 µg/mL; survival at 15 mg/kg [28]: 40%; Activity [29]: Non-toxic; Activity [30]: Active; MIC [31]: 18.8 µg/mL; Activity [32]: Active; Activity [33]: Active; Activity [34]: 50%; Activity [35]: Time-dependent-effect; Activity [36]: Active; MIC [37]: 9.38 µg/mL; fold change (FC) [38]: 32
CC[C@H](C)[C@H](NC(=O)[C@H](CCCNC(=N)N)NC(=O)[C@H](CO)NC(=O)[C@H](Cc1c[nH]cn1)NC(=O)[C@H](CCCNC(=N)N)NC(=O)[C@H](CC(C)C)NC(=O)[C@@H](NC(=O)[C@H](CCCNC(=N)N)NC(=O)CNC(=O)[C@H](CC(C)C)NC(=O)[C@H](CCC(N)=O)NC(=O)[C@H](CCCCN)NC(=O)[C@H](CCCNC(=N)N)NC(=O)[C@@H](NC(=O)[C@H](CCCCN)NC(=O)[C@H](CCCCN)NC(=O)[C@@H](N)Cc1ccccc1)C(C)C)C(C)C)C(=O)N[C@H](C(=O)N[C@H](C(=O)NCC(=O)NCC(=O)N[C@@H](CCCNC(=N)N)C(=O)N[C@@H](CCSC)C(=O)N[C@@H](CCCNC(=N)N)C(=O)N[C@@H](Cc1ccccc1)C(=O)O)C(C)C)[C@@H](C)O | 4.69 | 2.34 | 2.34 | Active | Active | 4.69 | Active | 0 | 16.7 | Active | < 5 | Non-toxic | Active | 18.8 | 10 | 75 | 20 | Active | 18.8 | 60 | Activity [39]: Active; Activity [23]: Active; Activity [24]: Active; mortality at 24 h [25]: 0%; MIC [26]: 9.38 µg/mL; MIC [27]: 4.69 µg/mL; survival at 15 mg/kg [28]: 40%; Activity [29]: Non-toxic; Activity [30]: Active; MIC [31]: 2.34 µg/mL; Activity [32]: Active; Activity [33]: Active; Activity [40]: Active; Activity [34]: 50%; Activity [35]: Time-dependent-effect; Activity [36]: Active; MIC [37]: 2.34 µg/mL

— ChEMBL document CHEMBL6078680, “Improving the Stability and Anti-Infective Activity of Sea Turtle AMPs Using Multiple Structural Modification Strategies” (J Med Chem, 2024)
